According to patent US10294202B2, “Pyrrolidinones as herbicides” (FMC Corporation, priority 2013, dated 2019):

Assays:
giant foxtail = experiment: Test A pre-/postemergence herbicide test; type: in vivo, Setaria faberii; conditions: 1000 g ai/ha
How it was run: (§1)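 Formulated compound (non-phytotoxic solvent, surfactant) sprayed pre- onto soil of seeded loam/sand pots or post- onto seedlings at 1–2 leaves; ~10 d greenhouse; 0–100 visual control rating versus untreated.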

wheat = experiment: Test A pre-/postemergence herbicide test; type: in vivo, Triticum aestivum; conditions: 1000 g ai/ha
How it was run: as §1

rice = experiment: Test B flooded paddy test; type: in vivo, Oryza sativa; conditions: 250 g ai/ha, Flood; scale of 0 to 100 where 0 is no effect and 100 is complete control
How it was run: (§2)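 Plants grown to 2-leaf stage; pots flooded 3 cm above soil and compound applied directly into paddy water, depth held throughout. Visual rating against untreated controls after 13 to 15 days in greenhouse, 0 (no effect) to 100 (complete control).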

ducksalad = experiment: Test B flooded paddy test; type: in vivo, Heteranthera limosa; conditions: 250 g ai/ha, Flood; scale of 0 to 100 where 0 is no effect and 100 is complete control
How it was run: as §2

barnyardgrass = experiment: Test B flooded paddy test; type: in vivo, Echinochloa crus-galli; conditions: 250 g ai/ha, Flood; scale of 0 to 100 where 0 is no effect and 100 is complete control
How it was run: as §2

blackgrass = experiment: Test C pre-/postemergence herbicide test; type: in vivo, Alopecurus myosuroides
How it was run: (§3)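 Compound solutions contained surfactant in a non-phytotoxic solvent. These were sprayed onto pots of loam/sand sown with seeds, and onto young plants (2 to 18 cm, 1- to 4-leaf) in sphagnum peat–vermiculite mix. Visual injury scores (0 none, 100 complete control) were recorded after 13 to 15 days.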

crabgrass, large = experiment: Test C pre-/postemergence herbicide test; type: in vivo, Digitaria sanguinalis
How it was run: as §3

lambsquarters = experiment: Test C pre-/postemergence herbicide test; type: in vivo, Chenopodium album
How it was run: as §3

nutsedge, yellow = experiment: Test C pre-/postemergence herbicide test; type: in vivo, Cyperus esculentus
How it was run: as §3

pigweed = experiment: Test C pre-/postemergence herbicide test; type: in vivo, Amaranthus retroflexus
How it was run: as §3

[1] = Postemergence, 0 to 100 scale (0 no effect, 100 complete control)
[2] = Preemergence, visual rating on 0 to 100 scale (0 no effect, 100 complete control), approx. 10 days
[3] = Preemergence, 31 g ai/ha, scale 0 to 100 (0 no effect, 100 complete control)
[4] = Preemergence, 62 g ai/ha, scale 0 to 100
[5] = Preemergence, 125 g ai/ha, scale 0 to 100 (0 no effect, 100 complete control)
[6] = Preemergence, 250 g ai/ha, scale 0 to 100 (0 no effect, 100 complete control)
[7] = Postemergence, 31 g ai/ha, scale 0 (no effect) to 100 (complete control)
[8] = Postemergence, 62 g ai/ha, scale 0 to 100 (0 no effect, 100 complete control)
[9] = Postemergence, 125 g ai/ha, scale 0 to 100 (0 no effect, 100 complete control)
[10] = Postemergence, 250 g ai/ha, scale 0 to 100 (0 no effect, 100 complete control)

Q: What does the source list for `O=C1NCC(c2cc(F)c(F)c(F)c2)C1C(=O)Nc1ccccc1C(F)(F)F` (racemic) [Compound 33]?
A: Plant response rating, Foxtail, Giant (giant foxtail; [1]): 90; Plant response rating, Foxtail, Giant (giant foxtail; [2]): 90; Plant response rating, Wheat (wheat; [1]): 60; Plant response rating, Wheat (wheat; [2]): 50; Plant response rating, Rice (rice): 0; Plant response rating, Ducksalad (ducksalad): 100; Plant response rating, Barnyardgrass (barnyardgrass): 0; Blackgrass plant response rating (blackgrass; [3]): 0; Plant response rating, Blackgrass (blackgrass; [4]): 0; Plant response rating, Blackgrass (blackgrass; [5]): 0; Plant response rating, Blackgrass (blackgrass; [6]): 5; Crabgrass, Large plant response rating (crabgrass, large; [3]): 95; Plant response rating, Crabgrass, Large (crabgrass, large; [4]): 98; Plant response rating, Crabgrass, Large (crabgrass, large; [5]): 100; Plant response rating, Crabgrass, Large (crabgrass, large; [6]): 100; Plant response rating, Lambsquarters (lambsquarters; [4]): 0; Plant response rating, Lambsquarters (lambsquarters; [5]): 25; Plant response rating, Nutsedge, Yellow (nutsedge, yellow; [4]): 10; Plant response rating, Pigweed (pigweed; [4]): 0; Plant response rating, Pigweed (pigweed; [5]): 0

Q: `O=C1NCC(c2cc(F)c(F)c(F)c2)C1C(=O)Nc1ccccc1F` (racemic) [Compound 34] was tested. Which “Plant response rating, Foxtail, Giant” value (giant foxtail; [1]) did it give?
A: Its value is 90.

Q: And the “Plant response rating, Foxtail, Giant” value (giant foxtail; [2])?
A: Its value is 90.

Q: And the “Plant response rating, Wheat” value (wheat; [1])?
A: The value was 70.

Q: What about the “Plant response rating, Wheat” value (wheat; [2]) of the same molecule?
A: Its value is 60.

Q: And the “Plant response rating, Rice” value (rice)?
A: The value was 0.

Q: And the “Plant response rating, Ducksalad” value (ducksalad)?
A: The value was 95.

Q: And the “Plant response rating, Barnyardgrass” value (barnyardgrass)?
A: The value was 0.

Q: And the “Plant response rating, Blackgrass” value (blackgrass; [7])?
A: Its value is 0.

Q: And the “Plant response rating, Blackgrass” value (blackgrass; [8])?
A: The value was 0.

Q: And the “Plant response rating, Blackgrass” value (blackgrass; [9])?
A: The value was 0.

Q: What about the “Plant response rating, Blackgrass” value (blackgrass; [10]) of the same molecule?
A: Its value is 0.

Q: What about the “Blackgrass plant response rating” value (blackgrass; [3]) of the same molecule?
A: Its value is 0.

Q: What about the “Plant response rating, Blackgrass” value (blackgrass; [4]) of the same molecule?
A: Its value is 0.

Q: What about the “Plant response rating, Blackgrass” value (blackgrass; [5]) of the same molecule?
A: Its value is 10.

Q: And the “Plant response rating, Blackgrass” value (blackgrass; [6])?
A: Its value is 45.

Q: And the “Plant response rating, Crabgrass, Large” value (crabgrass, large; [7])?
A: The value was 0.

Q: What about the “Plant response rating, Crabgrass, Large” value (crabgrass, large; [8]) of the same molecule?
A: The value was 30.

Q: And the “Plant response rating, Crabgrass, Large” value (crabgrass, large; [9])?
A: Its value is 40.

Q: What about the “Plant response rating, Crabgrass, Large” value (crabgrass, large; [10]) of the same molecule?
A: The value was 60.

Q: And the “Crabgrass, Large plant response rating” value (crabgrass, large; [3])?
A: Its value is 95.

Q: And the “Plant response rating, Crabgrass, Large” value (crabgrass, large; [4])?
A: Its value is 98.

Q: What about the “Plant response rating, Crabgrass, Large” value (crabgrass, large; [5]) of the same molecule?
A: The value was 100.

Q: What about the “Plant response rating, Crabgrass, Large” value (crabgrass, large; [6]) of the same molecule?
A: The value was 100.

Q: And the “Plant response rating, Lambsquarters” value (lambsquarters; [7])?
A: The value was 0.

Q: And the “Plant response rating, Lambsquarters” value (lambsquarters; [8])?
A: The value was 0.

Q: What about the “Plant response rating, Lambsquarters” value (lambsquarters; [9]) of the same molecule?
A: The value was 10.

Q: And the “Plant response rating, Lambsquarters” value (lambsquarters; [10])?
A: The value was 55.

Q: And the “Plant response rating, Lambsquarters” value (lambsquarters; [4])?
A: The value was 40.

Q: And the “Plant response rating, Lambsquarters” value (lambsquarters; [5])?
A: The value was 80.

Q: What about the “Plant response rating, Nutsedge, Yellow” value (nutsedge, yellow; [7]) of the same molecule?
A: Its value is 5.

Q: And the “Plant response rating, Nutsedge, Yellow” value (nutsedge, yellow; [8])?
A: The value was 5.

Q: And the “Plant response rating, Nutsedge, Yellow” value (nutsedge, yellow; [9])?
A: The value was 10.

Q: What about the “Plant response rating, Nutsedge, Yellow” value (nutsedge, yellow; [10]) of the same molecule?
A: Its value is 10.

Q: And the “Plant response rating, Nutsedge, Yellow” value (nutsedge, yellow; [4])?
A: The value was 0.

Q: And the “Plant response rating, Nutsedge, Yellow” value (nutsedge, yellow; [5])?
A: The value was 0.

Q: And the “Plant response rating, Pigweed” value (pigweed; [7])?
A: Its value is 0.

Q: What about the “Plant response rating, Pigweed” value (pigweed; [8]) of the same molecule?
A: The value was 0.

Q: And the “Plant response rating, Pigweed” value (pigweed; [9])?
A: Its value is 0.

Q: And the “Plant response rating, Pigweed” value (pigweed; [10])?
A: Its value is 10.

Q: And the “Plant response rating, Pigweed” value (pigweed; [4])?
A: Its value is 0.

Q: And the “Plant response rating, Pigweed” value (pigweed; [5])?
A: The value was 0.

Q: How did the “Plant response rating, Foxtail, Giant” value (giant foxtail; [1]) turn out when `Cc1ccccc1NC(=O)C1C(=O)NCC1c1cc(F)c(F)c(F)c1` (racemic) [Compound 35] was run?
A: Its value is 90.

Q: What about the “Plant response rating, Foxtail, Giant” value (giant foxtail; [2]) of the same molecule?
A: Its value is 90.

Q: What about the “Plant response rating, Wheat” value (wheat; [1]) of the same molecule?
A: The value was 40.

Q: And the “Plant response rating, Wheat” value (wheat; [2])?
A: Its value is 0.

Q: And the “Plant response rating, Rice” value (rice)?
A: Its value is 0.

Q: What about the “Plant response rating, Ducksalad” value (ducksalad) of the same molecule?
A: The value was 80.

Q: And the “Plant response rating, Barnyardgrass” value (barnyardgrass)?
A: The value was 0.

Q: And the “Blackgrass plant response rating” value (blackgrass; [3])?
A: The value was 0.

Q: What about the “Plant response rating, Blackgrass” value (blackgrass; [4]) of the same molecule?
A: The value was 0.

Q: And the “Plant response rating, Blackgrass” value (blackgrass; [5])?
A: Its value is 5.

Q: And the “Plant response rating, Blackgrass” value (blackgrass; [6])?
A: Its value is 50.

Q: What about the “Crabgrass, Large plant response rating” value (crabgrass, large; [3]) of the same molecule?
A: Its value is 95.

Q: And the “Plant response rating, Crabgrass, Large” value (crabgrass, large; [4])?
A: Its value is 98.

Q: And the “Plant response rating, Crabgrass, Large” value (crabgrass, large; [5])?
A: The value was 100.

Q: What about the “Plant response rating, Crabgrass, Large” value (crabgrass, large; [6]) of the same molecule?
A: The value was 100.

Q: What about the “Plant response rating, Lambsquarters” value (lambsquarters; [4]) of the same molecule?
A: Its value is 0.

Q: And the “Plant response rating, Lambsquarters” value (lambsquarters; [5])?
A: Its value is 0.

Q: What about the “Plant response rating, Nutsedge, Yellow” value (nutsedge, yellow; [4]) of the same molecule?
A: Its value is 0.

Q: What about the “Plant response rating, Nutsedge, Yellow” value (nutsedge, yellow; [5]) of the same molecule?
A: Its value is 0.

Q: What about the “Plant response rating, Pigweed” value (pigweed; [4]) of the same molecule?
A: Its value is 0.

Q: What about the “Plant response rating, Pigweed” value (pigweed; [5]) of the same molecule?
A: Its value is 0.
